Test [1] concerns PGF2α-EA formation in PMA-stimulated A549 cells. Nature of the test: Oxidative metabolism of AEA in A549 cells (prostamide formation). The class given is cell-based, human. Conditions: MJN228, KML110 5 and 25 μM, others 25 μM, AEA 20 μM. The method, then: The media from the PMA-stimulated cells was removed and cells were washed with DPBS (2×3 mL) before adding freshly prepared media solutions containing vehicle or compound (2 mL/plate). After incubating for 30 min at 37° C., a solution of BHT-stabilized AEA (60 μM AEA; 60 μM BHT) in the same media was added to the cells (1.0 mL/plate) and incubated for 1 h. The media from the cells was then transferred to glass vials containing MS internal standards [PGE2-EA-d4 (25 pmol)], centrifuged (1,500×g, 5 min) to remove detached cells and then loaded onto pre-equilibrated reversed phase SPE cartridges (Phenomenex, Strata-X 33 μm, 60 mg/3 mL). After washing cartridges with 5% MeOH/H2O (3 mL), prostamides were eluted with MeOH (1.0 mL) and the eluent was concentrated under a stream of N2. Concentrated samples were stored at −80° C. until the day of analysis when they were reconstituted in Mobile Phase A [100 μL, 30% CH3CN in H2O (0.1% AcOH, 5.0 mM NH4OAc)].
Media extracts were analyzed by LC/MS/MS with LC separation performed on a Kinetex reversed phase C18 column (50×4.6 mm, 2.6 μm particle size, 100Å). Mobile phase A was composed of 30% (v/v) CH3CN in H2O and Mobile phase B was composed of 50% (v/v) CH3CN in i-PrOH. Both mobile phases also contained 0.1% AcOH and NH4OAc (5 mM) to facilitate ionization and LC separation. […]
MS analysis of prostamides was performed on an Agilent 6460 Triple Quadrupole LC/MS System with operating conditions as follows: gas temperature (300° C.); gas flow (9 L·min^−1); nebulizer (45 psi); sheath gas temperature (300° C.); sheath gas flow (12 L·min^−1); positive and negative capillary voltage (3.5 kV). Analysis was achieved using multiple reaction monitoring with precursor to product ion transitions, optimized collision energies (CE) as listed below and prostamide quantification was achieved by normalized of analyte peaks relative to a deuterated prostamide internal standard (PGE2-EA-d4) to account for differences in extraction efficiency. […]

Test [2] has as its target T1, A-DA lipid probe targets in Neuro2a cells (Mus musculus, UniProt P45377).
T1 construct: endogenous in cells; host or cells: Neuro2a
Kind of test: In situ competitive SILAC profiling with A-DA probe in Neuro2a cells. The class given is cell-based. Conditions: Neuro2A cells, A-DA 5 μM, drug 25 μM.

Test [3] concerns the target A-DA lipid probe targets in A549 cells (Homo sapiens, UniProt P07093). Kind of test: In situ competitive SILAC profiling with A-DA probe in (PMA-stimulated) A549 cells. Conditions: protein SERPINE2 (P07093); A549 cells; competitor 25 μM.
Test [4] deals with T2, A-DA lipid probe targets in A549 cells (Homo sapiens, UniProt P35354).
T2 sequence (P35354 18-604): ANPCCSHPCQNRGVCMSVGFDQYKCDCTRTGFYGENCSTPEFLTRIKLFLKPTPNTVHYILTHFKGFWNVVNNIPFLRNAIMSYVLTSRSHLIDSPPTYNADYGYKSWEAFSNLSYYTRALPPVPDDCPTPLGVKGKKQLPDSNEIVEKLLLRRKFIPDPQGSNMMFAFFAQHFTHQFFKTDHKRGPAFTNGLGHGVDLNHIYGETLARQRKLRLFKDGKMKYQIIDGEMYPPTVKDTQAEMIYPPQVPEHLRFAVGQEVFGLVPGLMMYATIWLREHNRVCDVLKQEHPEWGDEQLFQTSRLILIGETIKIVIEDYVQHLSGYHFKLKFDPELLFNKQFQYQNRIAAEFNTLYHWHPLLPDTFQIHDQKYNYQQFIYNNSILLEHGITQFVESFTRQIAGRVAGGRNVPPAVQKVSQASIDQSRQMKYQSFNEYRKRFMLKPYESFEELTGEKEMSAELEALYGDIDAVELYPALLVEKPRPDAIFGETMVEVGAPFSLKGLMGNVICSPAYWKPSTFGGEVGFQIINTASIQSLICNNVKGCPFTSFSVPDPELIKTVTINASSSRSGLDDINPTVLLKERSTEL
The description is as above. Conditions: PMA-stimulated A549 cells, A-DA 5 μM, drug 25 μM.

Test [5] has as its target T3, A-DA lipid probe targets in A549 cells (Homo sapiens, UniProt Q9UH99).
T3 sequence (Q9UH99 1-717): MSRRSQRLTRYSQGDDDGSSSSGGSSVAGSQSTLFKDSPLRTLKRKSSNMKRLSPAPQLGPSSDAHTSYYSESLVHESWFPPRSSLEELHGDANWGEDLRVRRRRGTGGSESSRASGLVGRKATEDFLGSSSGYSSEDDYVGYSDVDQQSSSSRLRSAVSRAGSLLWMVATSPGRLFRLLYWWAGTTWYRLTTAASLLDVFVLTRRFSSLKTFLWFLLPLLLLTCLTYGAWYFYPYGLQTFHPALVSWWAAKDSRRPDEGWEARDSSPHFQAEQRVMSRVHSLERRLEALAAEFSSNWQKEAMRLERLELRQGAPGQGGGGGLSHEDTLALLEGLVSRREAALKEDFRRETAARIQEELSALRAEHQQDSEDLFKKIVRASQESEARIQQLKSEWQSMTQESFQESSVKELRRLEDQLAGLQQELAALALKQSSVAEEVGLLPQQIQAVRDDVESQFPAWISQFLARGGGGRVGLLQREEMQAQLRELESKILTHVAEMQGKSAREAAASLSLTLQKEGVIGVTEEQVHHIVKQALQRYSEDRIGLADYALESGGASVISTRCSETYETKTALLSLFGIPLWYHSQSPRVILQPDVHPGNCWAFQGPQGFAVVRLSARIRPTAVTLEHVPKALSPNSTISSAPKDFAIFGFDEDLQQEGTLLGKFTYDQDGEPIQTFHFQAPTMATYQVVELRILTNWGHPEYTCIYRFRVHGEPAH
Described as above. Conditions: protein SUN2 (Q9UH99); A549 cells; competitor 25 μM.

T1 sequence (P45377 whole entry): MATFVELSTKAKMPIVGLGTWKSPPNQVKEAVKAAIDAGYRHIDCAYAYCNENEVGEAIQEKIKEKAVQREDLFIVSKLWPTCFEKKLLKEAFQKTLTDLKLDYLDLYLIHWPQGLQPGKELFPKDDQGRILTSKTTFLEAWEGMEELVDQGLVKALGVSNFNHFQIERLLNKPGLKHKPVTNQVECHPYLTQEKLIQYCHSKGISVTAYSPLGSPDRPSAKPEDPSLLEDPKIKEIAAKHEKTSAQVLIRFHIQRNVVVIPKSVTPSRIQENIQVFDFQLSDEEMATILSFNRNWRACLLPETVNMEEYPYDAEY
A-DA lipid probe targets in A549 cells (Homo sapiens, UniProt P07093), sequence (P07093 20-398): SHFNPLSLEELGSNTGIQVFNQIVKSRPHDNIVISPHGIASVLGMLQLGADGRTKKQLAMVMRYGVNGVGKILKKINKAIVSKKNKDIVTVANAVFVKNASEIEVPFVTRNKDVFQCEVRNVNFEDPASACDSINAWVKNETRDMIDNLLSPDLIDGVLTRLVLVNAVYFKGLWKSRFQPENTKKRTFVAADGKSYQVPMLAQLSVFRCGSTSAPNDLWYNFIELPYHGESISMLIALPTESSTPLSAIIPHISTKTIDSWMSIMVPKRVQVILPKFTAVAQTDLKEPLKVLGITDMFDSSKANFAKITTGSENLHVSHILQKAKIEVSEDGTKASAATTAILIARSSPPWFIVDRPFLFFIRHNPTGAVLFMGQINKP

Consider `CS(=O)(=O)c1ccc(C2=C(c3ccccc3)C(=O)OC2)cc1` [rofecoxib, reference compound], for which the “conversion of exogenous AEA to PGF2α-EA” value in test [1] was “blocked”. Moreover, the “A-DA labeling of AKR1B8” value in test [2] was “reductions”. The entries for the “SILAC ratio, A-DA competition” value in test [3] and in test [5] were 1.1 and 1.2, respectively. In addition, the “competition of A-DA labeling of PTGS2” value in test [4] was “disrupted”.

(Values after patent US10168342B2, “Lipid probes and uses thereof” (THE SCRIPPS RESEARCH INSTITUTE, priority 2015, dated 2019).)
